Laboratory results: patent publication US4309425A (priority 1980, dated 1982)
Where two headings read alike, the source gives them in different places.

Columns and labels:
Venturia inaequalis [1] = assay: apple scab residual wash-off test; type: in vivo; conditions: 1/2 inch simulated rainfall, 10-12 days
Procedure: Compounds of this invention are dissolved in acetone in an amount equal to 6% of the final volume and then suspended at a concentration of 20 ppm in purified water containing 25 ppm of the surfactant Alkanol® XC (sodium alkyl naphthalene sulfonate). This suspension is sprayed to the point of run-off on apple seedlings. The following day, 1/2 inch of simulated rainfall is applied to the foliage of the plants. When the foliage is dry, the plants are inoculated with a spore suspension of the fungus Venturia inaequalis and incubated in a growth room for 10-12 days. Disease ratings are then made. […] Phytotoxicity in the form of foliar burn was observed on the plants in association with disease control.

Sclerotinia sclerotiorum = assay: white mold on carrot sections dip test; conditions: 100 ppm dip, 20° C., six days
Procedure: Surface-sterilized carrot sections were dipped two minutes in a 100 ppm solution of the compounds of this invention. Additional sections were dipped in a check solution which contained 500 ppm Alkanol® XC (sodium alkyl naphthalene sulfonate). After inoculation by placing a mycelial plug of Sclerotinia sclerotiorum on each carrot section, the test was held at 20° C. for six days.
The untreated carrot sections were completely invaded with the mycelial growth of white mold fungus, but the treated sections had little or no growth by this disease causing organism.

Erisyphe cichoracearum = assay: cucumber powdery mildew curative test; type: in vivo; conditions: Cucumis sativus, 144 h, sprayed day after inoculation, additional 6 days
Excerpt: Cucumber plants are inoculated with a spore suspension of the fungus Erisyphe cichoracearum and in a growth room overnight. The following day, the plants are sprayed to the point of run-off with a suspension prepared by dissolving compounds of this invention in acetone in an amount equal to 6% of the final volume and then suspended at a concentration of 20 ppm in purified water containing 25 ppm of the surfactant Alkanol® XC (sodium alkyl naphthalene sulfonate). Plants are returned to the growth room for an additional 6 days when disease ratings are then made. […] Phytotoxicity in the form of foliar burn or growth reduction was observed on some of the plants in association with disease control.

Venturia inaequalis [2] = assay: apple scab photostability test; type: in vivo; conditions: xenon arc 3500 foot candles 16 hours, 10-12 days
Procedure: Compounds of this invention are dissolved in acetone in an amount equal to 6% of the final volume and then suspended at a concentration of 20 ppm in purified water containing 25 ppm of the surfactant Alkanol® XC (sodium alkyl naphthalene sulfonate). This suspension is sprayed to the point of run-off on apple seedlings. When the foliage is dry, the plants are exposed to 3500 foot candles of light from a xenon arc source for a period of 16 hours. This light source approximates the spectrum of natural sunlight, and is used to assess photostability of the compounds of this invention on plant foliage. The following day, the plants are inoculated with a spore suspension of the fungus Venturia inaequalis and incubated in a growth room for 10-12 days. Disease ratings are then made. […] Phytotoxicity in the form of foliar burn was observed on some of the plants in association with disease control.

[3] = system: Puccinia graminis var. tritici; assay: whole plant or invertebrate; type: in vivo; conditions: 192 h, read-out: % control wheat rust in a photostability test
Erysiphe cichoracearum [4] = assay: cucumber powdery mildew photostability test; type: in vivo; conditions: Golovinomyces cichoracearum, 168 h, xenon arc 3500 foot candles 16 hours, 7 days
Procedure: Compounds of this invention are dissolved in acetone in an amount equal to 6% of the final volume and then suspended at a concentration of 20 ppm in purified water containing 25 ppm of the surfactant Alkanol® XC (sodium alkyl naphthalene sulfonate). This suspension is sprayed to the point of run-off in cucumber seedlings. When the foliage is dry, the plants are exposed to 3500 foot candles of light from a xenon arc source for a period of 16 hours. This light source approximates the spectrum of natural sunlight, and is used to assess photostability of the compounds of this invention on plant foliage. The following day, the plants are inoculated with a spore suspension of the fungus Erysiphe cichoracearum and incubated in a growth room for 7 days. Disease ratings are then made.

Erysiphe cichoracearum [5] = assay: cucumber powdery mildew residual wash-off test; type: in vivo; conditions: Golovinomyces cichoracearum, 168 h, 1/2 inch simulated rainfall, 7 days
Procedure: Compounds of this invention are dissolved in acetone in an amount equal to 6% of the final volume and then suspended at a concentration of 20 ppm in purified water containing 25 ppm of the surfactant Alkanol® XC (sodium alkyl naphthalene sulfonate). This suspension is sprayed to the point of run-off on cucumber seedlings. The following day, 1/2 inch of simulated rainfall is applied to the foliage of the plants. When the foliage is dry, the plants are inoculated with a spore suspension on the fungus Erysiphe cichoracearum and incubated in a growth room for 7 days. Disease ratings are then made.

Erysiphe cichoracearum [6] = assay: cucumber powdery mildew preventive test; type: in vivo; conditions: Golovinomyces cichoracearum, 168 h, 7 days
Procedure: Compounds of this invention are dissolved in acetone in an amount equal to 6% of the final volume and then suspended at a concentration of 20 ppm in purified water containing 25 ppm of the surfactant Alkanol® XC (sodium alkyl naphthalene sulfonate). This suspension is sprayed to the point of run-off on cucumber seedlings. The following day, the plants are inoculated with a spore suspension of the fungus Erysiphe cichoracearum and incubated in a growth room for 7 days. Disease ratings are then made. […] Phytotoxicity in the form of foliar burn or growth reduction was observed on some of the plants in association with disease control.

[7] = system: Puccinia graminis var. tritici; assay: whole plant or invertebrate; type: in vivo; conditions: 192 h, read-out: % control wheat rust in residual wash-off test
[8] = system: Eggs of the beet armyworm (Spodoptera exigua); assay: beet armyworm egg (ovicidal) test, % eggs failing to hatch; type: in vivo; conditions: 72 h, three days, read-out: % Control (% eggs failing to hatch); for mortality at 1 %: 1% in acetone
Procedure: Eggs of the beet armyworm (Spodoptera exigua), laid on cellophane discs each containing 50-75 eggs, were placed in petri dishes and lightly sprayed with 1% concentrations of the indicated compounds in acetone solution. Three days later, percent control (% eggs failing to hatch) was determined.
Eggs of the beet armyworm (Spodoptera exigua), laid on cellophane discs each containing 50-75 eggs, were placed in petri dishes and lightly sprayed with 200 ppm concentration of the indicated compounds in acetone solution. Three days later, percent control (% eggs failing to hatch) was determined.

[9] = system: Puccinia graminis var. tritici; assay: whole plant or invertebrate; type: in vivo; conditions: 192 h, read-out: % control wheat rust in preventive test
Phytophthora infestans = assay: whole plant or invertebrate; type: in vivo; conditions: in Solanum lycopersicum, 96 h, read-out: % control tomato late blight in a photostability test
Rhizoctonia solani = Rhizoctonia solani infested soil test, cotton; type: in vivo; conditions: 192 h, 1.5 kg/ha, 8 days
Excerpt: Rhizoctonia solani-infested soil was placed in a 900 cc cup. Compounds of this invention were mixed at a rate of 1.5 kg/ha in a section 2" wide×2" deep×4" long to simulate an in-the-row application. Five cotton seeds were planted in the treated soil. After 8 days, the cotton plants were removed and rated for disease control.

Q: What does the source list for Cc1ccc(S(=O)(=O)N(C)SN(c2cc(C(F)(F)F)ccc2Cl)c2c([N+](=O)[O-])cc([N+](=O)[O-])cc2C(F)(F)F)cc1?
A: pest or weed control at 20 ppm (Venturia inaequalis [1]): 100%; % control White Mold (Sclerotinia sclerotiorum): 100%; pest or weed control at 20 ppm (Erisyphe cichoracearum): 100%; pest or weed control at 20 ppm (Venturia inaequalis [2]): 100%; pest or weed control at 20 ppm [3]: 40%; pest or weed control at 20 ppm (Erysiphe cichoracearum [4]): 0%; pest or weed control at 20 ppm (Erysiphe cichoracearum [5]): 92%; pest or weed control at 20 ppm (Erysiphe cichoracearum [6]): 100%; pest or weed control at 20 ppm [7]: 100%; mortality at 1 % [8]: 100%; pest or weed control at 20 ppm [9]: 80%; pest or weed control at 20 ppm (Phytophthora infestans): 50%; pest or weed control at 1500 g/ha (Rhizoctonia solani): 100%

Q: Which results are given for CCCCN(SN(c1cc(C(F)(F)F)ccc1Cl)c1c([N+](=O)[O-])cc([N+](=O)[O-])cc1C(F)(F)F)S(=O)(=O)c1ccccc1C?
A: pest or weed control at 20 ppm (Venturia inaequalis [1]): 100%; % control White Mold (Sclerotinia sclerotiorum): 100%; pest or weed control at 20 ppm (Erisyphe cichoracearum): 93%; pest or weed control at 20 ppm (Venturia inaequalis [2]): 80%; pest or weed control at 20 ppm [3]: 98%; pest or weed control at 20 ppm (Erysiphe cichoracearum [4]): 100%; pest or weed control at 20 ppm (Erysiphe cichoracearum [5]): 100%; pest or weed control at 20 ppm (Erysiphe cichoracearum [6]): 100%; pest or weed control at 20 ppm [7]: 100%; mortality at 1 % [8]: 100%; pest or weed control at 20 ppm [9]: 100%; pest or weed control at 20 ppm (Phytophthora infestans): 90%; pest or weed control at 1500 g/ha (Rhizoctonia solani): 50%

Q: For CCCCN(SN(c1cc(C(F)(F)F)ccc1Cl)c1c([N+](=O)[O-])cc([N+](=O)[O-])cc1C(F)(F)F)S(=O)(=O)c1ccc(C)cc1, which pest or weed control at 20 ppm (Venturia inaequalis [1]) is on record?
A: Its pest or weed control at 20 ppm is 100%.

Q: What about the “% control White Mold” value (Sclerotinia sclerotiorum) of the same compound?
A: Its value is 86%.

Q: And the pest or weed control at 20 ppm (Erisyphe cichoracearum)?
A: Its pest or weed control at 20 ppm is 92%.

Q: And the pest or weed control at 20 ppm (Venturia inaequalis [2])?
A: Its pest or weed control at 20 ppm is 0%.

Q: And the pest or weed control at 20 ppm [3]?
A: The pest or weed control at 20 ppm was 100%.

Q: What about the pest or weed control at 20 ppm (Erysiphe cichoracearum [4]) of the same compound?
A: Its pest or weed control at 20 ppm is 75%.

Q: What about the pest or weed control at 20 ppm (Erysiphe cichoracearum [5]) of the same compound?
A: Its pest or weed control at 20 ppm is 100%.

Q: What about the pest or weed control at 20 ppm (Erysiphe cichoracearum [6]) of the same compound?
A: The pest or weed control at 20 ppm was 100%.

Q: And the pest or weed control at 20 ppm [7]?
A: The pest or weed control at 20 ppm was 100%.

Q: What about the mortality at 200 ppm ([8]; 200 ppm in acetone) of the same compound?
A: The mortality at 200 ppm was 100%.

Q: What about the pest or weed control at 20 ppm [9] of the same compound?
A: The pest or weed control at 20 ppm was 100%.

Q: And the pest or weed control at 20 ppm (Phytophthora infestans)?
A: The pest or weed control at 20 ppm was 95%.

Q: What about the pest or weed control at 1500 g/ha (Rhizoctonia solani) of the same compound?
A: Its pest or weed control at 1500 g/ha is 100%.
